# Reference: PubChem BioAssay AID1963961 (Molecular Pharmacology Branch, DTP, NCI, 2024)
# System: K98450-129-R-PDC multicell spheroids, viability
# Assay: Anticancer human tumor K98450-129-R-PDC patient-derived colon adenocarcinoma cell line growth inhibition [PI3K]
# Conditions: for IC50: curve of first compound; for viability, T/C: stronger effect = lower value
# Description: Combinatorial screen of targeted agents with the PI3K inhibitors inavolisib, alpelisib, duvelisib, and copanlisib in multi-cell type tumor spheroids
# A high-throughput screen of multi-cell type tumor spheroids was designed to identify active combinations of targeted small molecules and PI3K pathway inhibitors. Complex spheroids include a stromal component modeled by human endothelial cells (HUVEC) and fibroblasts modeled by human mesenchymal stem cells (MSCs). The concentration ranges selected for each drug and investigational agent were based upon clinically achievable concentrations if the clinical Cmax of the agent was known.
# Compounds. The drugs and investigational agents: inavolisib (NSC800729), alpelisib (NSC765974), duvelisib (NSC772469), copanlisib (NSC816437), ipatasertib (NSC767898), afuresertib (NSC778305), talazoparib (NSC767125), sapanisertib (NSC764658), selumetinib (NSC741078), tovorafenib (DAY101, NSC766906), vemurafenib (NSC761431), ravoxertinib (NSC781343), sotorasib (NSC818433), MRTX1133 (NSC 836407), abemaciclib (NSC 768073), palbociclib (NSC758247), venetoclax (NSC 766270), SY5609 (NSC837396), enzalutamide (NSC755605), and darolutamide (NSC825331), were obtained from the National Cancer Institute (NCI) Developmental Therapeutics Program Chemical Repository. The FDA-approved anticancer drug set is available from the NCI Developmental Therapeutics Program. […] The stock solutions were prepared in dimethyl sulfoxide (DMSO, Sigma-Aldrich, St. Louis, MO, cat. D2650) at 800-fold the tested concentration and stored at -70 degrees C prior to their use. All drugs and investigational agents were tested over a range starting from a high concentration at or near the clinical Cmax and decreasing in half-log increments. If the clinical Cmax for an agent had not been determined, the highest concentration tested was 10 microM.
# Cell Culture. All cells were maintained in an incubator at 37 degrees C and 5% CO2 with 95% humidity. The PDC lines were cultured according to standard operating procedures established by the NCI PDMR (https://pdmr.cancer.gov/sops/default.htm). All PDCs were thawed and cultured in Matrigel-coated flasks prepared with a working solution of 1X Ham's F-12 nutrient mix, without supplementation (Invitrogen, Waltham, MA, cat. 11765054), 100 U/mL penicillin-streptomycin (Invitrogen, cat. 15140122), and 2.5% Matrigel (Corning Inc., Corning, NY, cat. 354248) for the first three passages. The 354836-022-R-J1-PDC, 475296-252-R-J1-PDC, and 997726-040-R-J2-PDC lines were cultured in 6A media, which includes advanced DMEM/F-12 (Thermo Fisher Scientific, cat. 12634028), 10 mM HEPES (Thermo Fisher Scientific, cat. 15630080), 1X GlutaMAX supplement (Thermo Fisher Scientific, cat. 35050061), 0.1 mg/mL primocin (InvivoGen, San Diego, CA, cat. ant-pm-2), 10% defined fetal bovine serum, heat inactivated (HyClone Laboratories Inc., Logan, UT, cat. SH30070.03HI), 50% L-WRN conditioned media (ATCC, cat. CRL-3276), 1.25 mM N-Acetyl-L-cysteine (Sigma-Aldrich, cat. A9165), 10 mM nicotinamide (Sigma-Aldrich, cat. N0636), 1X B-27 supplement (Thermo Fisher Scientific, cat. 17504044), 1X N-2 supplement (Thermo Fisher Scientific, cat. 17502048), and 10 microM Y-27632 dihydrochloride (Tocris Bioscience, Bristol, United Kingdom, cat. 1254). The 624824-186-R-J2-PDC line was cultured in 6C/Colon 1B media, which includes all 6A media components plus 50 ng/mL human EGF recombinant protein (Thermo Fisher Scientific, cat. PHG0311). […]
# 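Note: spheroids exposed to agents for seven days before read-out.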
smiles,measurement,setting,value
CC1(C)CCC(CN2CCN(c3ccc(C(=O)NS(=O)(=O)c4ccc(NCC5CCOCC5)c([N+](=O)[O-])c4)c(Oc4cnc5[nH]ccc5c4)c3)CC2)=C(c2ccc(Cl)cc2)C1 + COc1c(OCCCN2CCOCC2)ccc2c3n(c(=NC(=O)c4cnc(N)nc4)nc12)CCN3,IC50,second compound 0.00316 µM,> 10 µM
same,IC50,second compound 0.01 µM,> 10 µM
same,IC50,second compound 0.0316 µM,> 10 µM
same,IC50,second compound 0.1 µM,> 10 µM
same,IC50,second compound 0.316 µM,> 10 µM
same,IC50,second compound 1 µM,> 10 µM
same,"viability, T/C","second compound 0.00316 µM, first compound 0.0316 µM",94.9%
same,"viability, T/C","second compound 0.00316 µM, first compound 0.1 µM",112%
same,"viability, T/C","second compound 0.00316 µM, first compound 0.316 µM",107%
same,"viability, T/C","second compound 0.00316 µM, first compound 1 µM",96.1%
same,"viability, T/C","second compound 0.00316 µM, first compound 3.16 µM",93.7%
same,"viability, T/C","second compound 0.00316 µM, first compound 10 µM",97.1%
same,"viability, T/C","second compound 0.01 µM, first compound 0.0316 µM",125%
same,"viability, T/C","second compound 0.01 µM, first compound 0.1 µM",111%
same,"viability, T/C","second compound 0.01 µM, first compound 0.316 µM",119%
same,"viability, T/C","second compound 0.01 µM, first compound 1 µM",104%
same,"viability, T/C","second compound 0.01 µM, first compound 3.16 µM",95.7%
same,"viability, T/C","second compound 0.01 µM, first compound 10 µM",86%
same,"viability, T/C","second compound 0.0316 µM, first compound 0.0316 µM",101%
same,"viability, T/C","second compound 0.0316 µM, first compound 0.1 µM",96.3%
same,"viability, T/C","second compound 0.0316 µM, first compound 0.316 µM",104%
same,"viability, T/C","second compound 0.0316 µM, first compound 1 µM",99.6%
same,"viability, T/C","second compound 0.0316 µM, first compound 3.16 µM",96.8%
same,"viability, T/C","second compound 0.0316 µM, first compound 10 µM",85.1%
same,"viability, T/C","second compound 0.1 µM, first compound 0.0316 µM",72.8%
same,"viability, T/C","second compound 0.1 µM, first compound 0.1 µM",76.8%
same,"viability, T/C","second compound 0.1 µM, first compound 0.316 µM",91.2%
same,"viability, T/C","second compound 0.1 µM, first compound 1 µM",90.5%
same,"viability, T/C","second compound 0.1 µM, first compound 3.16 µM",80.4%
same,"viability, T/C","second compound 0.1 µM, first compound 10 µM",72.7%
same,"viability, T/C","second compound 0.316 µM, first compound 0.0316 µM",60%
same,"viability, T/C","second compound 0.316 µM, first compound 0.1 µM",48%
same,"viability, T/C","second compound 0.316 µM, first compound 0.316 µM",75.6%
same,"viability, T/C","second compound 0.316 µM, first compound 1 µM",60.6%
same,"viability, T/C","second compound 0.316 µM, first compound 3.16 µM",53.5%
same,"viability, T/C","second compound 0.316 µM, first compound 10 µM",55.2%
same,"viability, T/C","second compound 1 µM, first compound 0.0316 µM",49.1%
same,"viability, T/C","second compound 1 µM, first compound 0.1 µM",49.6%
same,"viability, T/C","second compound 1 µM, first compound 0.316 µM",59.6%
same,"viability, T/C","second compound 1 µM, first compound 1 µM",54.6%
same,"viability, T/C","second compound 1 µM, first compound 3.16 µM",41.4%
same,"viability, T/C","second compound 1 µM, first compound 10 µM",54.2%
